In paper PMC6468747 (Cancers, 2019):

Test system: MDA-MB-231 tumor xenografts
Assay: MDA-MB-231 cell-line derived xenograft (CDX), IP dose study
Type: in vivo, athymic nude mice
Conditions: for tumor growth inhibition (TGI): 5 days a week, 4 weeks
From the text: Female athymic nude (Jackson Laboratory, Bar Harbor, Maine, USA) 5–6 weeks of age were housed under complete aseptic conditions, fed autoclaved pellets and sterile water ad libitum. Following a week of acclimatization, approximately 1 × 10^6 MDA-MB-231 cells were inoculated into both flanks for MDA-MB-231 derived xenograft tumors. Tumor-bearing mice (tumor volume around 90–110 mm^3) were randomized into various treatment groups (5 mice in each group; compounds formulated in vehicle) and treated as follows: (i) vehicle control (40% β-cyclodextrin in ddH2O, IP), (ii) VNLG-152R (5 mg/kg, IP, once daily), (iii) VNLG-152 (10 mg/kg, IP, once daily) and (iv) VNLG-152 (20 mg/kg, IP, once daily) 5 days/week for 29 days. Tumors were measured twice weekly with calipers and tumor volume was calculated by the formula: […] (mm^3). Animals were also weighed weekly and monitored for general health status and signs of possible toxicity due to treatments. Mice were sacrificed after the indicated periods of treatment and tumors and organs excised. Tumors were divided and either flash frozen in liquid nitrogen or placed in 10% buffered formalin for western blot analysis, immunohistochemistry (IHC), and hematoxylin and eosin (H & E) staining. It is important to state here that the control was part of a large study with our other retinamides whose data has already been reported.
Western blotting of tumor tissue lysates was performed according to standard protocol. Briefly, 30–50 μg protein per lysate was denatured with 2× sample buffer and resolved on 12 or 16% Tris–glycine gels by sodium dodecyl sulfate–polyacrylamide gel electrophoresis. Separated proteins were transferred onto nitrocellulose membrane by western blotting, and membrane was blocked for 1 h in blocking buffer and then incubated with specific primary antibodies (1:1000 dilution), followed by peroxidase-conjugated appropriate secondary antibody (1:3000 dilution). Finally, proteins were visualized by enhanced chemiluminescence detection and exposure to X-ray film. To confirm equal protein loading, membranes were stripped and re-probed with mouse monoclonal anti-β-actin primary antibody (Sigma).

**Q.** What does the source list for `CC1=C(/C=C/C(C)=C/C=C/C(C)=C/C(=O)Nc2ccc(F)cc2)C(C)(C)CCC1n1ccnc1` (racemic) [VNLG-152R, 4-(±)-(1H-imidazol-1-yl)-N-(4-fluorophenyl)-(E)-retinamide]?
**A.** tumor growth inhibition (TGI) (5 mg/kg/day IP): 91%; tumor growth inhibition (TGI) (10 mg/kg/day IP): 97%; increase in the Bax/Bcl-2 ratio vs control (20 mg/kg IP, tumor lysates): 470 fold; tumor growth inhibition (TGI) (20 mg/kg/day IP): 97%; changes in body weights (5, 10, 20 mg/kg IP): no significant changes in body weights were observed; gross organ (liver, lung and kidney) abnormalities (5, 10, 20 mg/kg IP, H&E staining): no gross organ (liver, lung and kidney) abnormalities; expression of Mnk1, Mnk2, p-eIF4E, cyclin D1, Bcl-2, Bax and Bad in tumors (10 or 20 mg/kg IP, western blot): significant dose-dependent suppressions of Mnk1, Mnk2, p-eIF4E, cyclin D1, Bcl-2, and up-regulation of Bax and Bad
